Ends that are not written are not given here.
Target: T1, TGF-β1 (Rattus norvegicus, UniProt P17246)
T1 construct: from tissue; host or cells: cornea of Long-Evans rats
Experiment: Corneal fibrosis and haze after 1 N NaOH damage, topical eye drops, photographs analysed with ImageJ
Assay type: in vivo, Long-Evans rats
Conditions: fifth formulation eye drops, treated right eye vs control left eye
Description: Male Long-Evans rats aged 10 weeks were used, divided into 5 groups: • Group 1: 12 rats, 6 treated with dexamethasone and 6 treated with mitomycin C • Group 2: 12 rats, 6 treated with p17 of the first formulation (see section 6.1.2.b) and 6 treated with p144 of the first formulation (see section 6.1.2.b) • Group 3: 12 rats, 6 treated with p17 of the second formulation (see section 6.1.2.b) and 6 treated with p144 of the second formulation (see section 6.1.2.b) • Group 4: 12 rats, 6 treated with p17 of the third formulation (see section 6.1.2.b) and 6 treated with p144 of the third formulation (see section 6.1.2.b) • Group 5: 12 rats, 6 treated with p17 of the fourth formulation (see section 6.1.2.b) and 6 treated with p144 of the fourth formulation (see section 6.1.2.b) • Group 6: 12 rats, 6 treated with p17 of the fifth formulation (see section 6.1.2.b) and 6 treated with p144 of the fifth formulation (see section 6.1.2.b)
To perform the damage in the cornea, the animals were anesthetized with isoflurane and a 5 mm Whatman paper disc impregnated in 1 N NaOH for 30 seconds was applied to them in the central part of the eye. After the damage, they were washed with abundant physiological saline serum and an antibiotic ointment was applied to them to prevent possible infections in the affected area.
After conducting several in vivo studies with the previously described groups of animals, it could be concluded that the chemical damage occurring after the application of NaOH for 30 seconds caused an excessive lesion for the study which was to be conducted, therefore it was decided to conduct new experiments reducing the time to 15 seconds.
It was randomly established that the left eye of each animal would act as a control and that the right eye would be the treated eye, such that the same animals acts as a control in addition to being treated. It must be pointed out that all the animals received antibiotic treatment in both eyes daily only during the first week of the study for the purposes of avoiding microbial keratitis.
Starting from 0.15% sodium hyaluronate (Hyabak 10 mL, Thea) without preservatives: • p144: 20 mg were dissolved in 5 ml of eye drops, 40 μl of saturated concentrated NaOH were incorporated, stirring and adding in portions of 5 μl. It was sonicated until solubilization. To adjust the pH, 500 μl of 1M Hepes were added, such that the pH changed from 10.5 to 7 • p144 control: 40 μl of saturated NaOH and 500 μl of 1 M HEPES (final concentration of HEPES 50 mM) • p17: 20 mg were dissolved in 5 ml of the eye drops, it was sonicated until complete solubilization and it was incorporated to the vial with a 10 ml syringe and a blue needle to perforate the filter of the contained (final concentration 2 mg/ml) • p17 control: non-manipulated eye drops • Note: The formulations were maintained at 4° C. throughout the study.
The administration of the treatment was initiated twenty-four hours after the damage. After that time a follow-up of the damage was performed, which consisted of taking photographs at days 0, 7, 14, 21, 28 and 35. To take the photographs the animals were anesthetized with isoflurane. Photographs were taken of both the control eye (left) and of the treated eye (right) with and without fluorescein. The photographs with fluorescein allowed to observe the evolution of the epithelial closure of the generated lesion, whereas the photographs without fluorescein show the evolution of the haze of the lesioned area. […]

T1 sequence (P17246 279-390 limits assumed): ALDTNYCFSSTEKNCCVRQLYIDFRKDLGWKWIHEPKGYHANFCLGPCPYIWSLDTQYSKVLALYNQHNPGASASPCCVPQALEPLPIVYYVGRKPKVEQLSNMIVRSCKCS

In the case of “KRIWFIPRSSWYERA [SEQ ID NO: 17, KRIWFIPRSSWYERA]”, the corneal haze is reported as “clear decrease” and the “epithelial closure (fluorescein)” value is reported as “clear decrease”.

— patent US8158589B2, “Peptides with the capacity to bind to transforming growth factor β1 (TGF-β1)” (Proyecto Biomedicine Cima, S.L., priority 2003, dated 2012)
